Activity calls are given as the source filed them. The calls are words filed in the database; no cut-off is given here.
Columns and labels:
THP-1 [1] = test: Inhibition of ox-LDL induced lipid accumulation in human THP-1 cells assessed as reduction in total triglyceride level at 2.5 to 15 uM; assay type: functional, cell-based; conditions: dose 2.5-15 µM
THP-1 [2] = test: Inhibition of foam cells formation in human THP-1 cells assessed as reduction in CD36 protein expression at 2.5 to 15 uM by Western blot analysis; assay type: functional, cell-based; conditions: dose 2.5-15 µM
HepG2 [3] = test: Induction of reverse cholesterol transport in human HepG2 cells assessed as increase in SR-B1 protein expression by Western blot analysis; assay type: functional, cell-based; conditions: dose 2.5-15 µM, DDE = dose-dependent effect
THP-1 [4] = test: Inhibition of foam cells formation in human THP-1 cells assessed as upregulation of ABCA1 protein expression at 2.5 to 15 uM by Western blot analysis; assay type: functional, cell-based; conditions: dose 2.5-15 µM
HepG2 [5] = test: Induction of reverse cholesterol transport in human HepG2 cells assessed as reduction in PCSK9 mRNA expression at 2.5 to 15 uM by qRT-PCR analysis; assay type: functional, cell-based; conditions: dose 2.5-15 µM
THP-1 [6] = test: Inhibition of ox-LDL uptake in human THP-1 foam cells assessed as downregulation of CD36 expression by measuring reduction in pERK protein expression at 2.5 to 15 uM by Western blot analysis; assay type: functional, cell-based; conditions: dose 2.5-15 µM
THP-1 [7] = test: Inhibition of ox-LDL induced lipid accumulation in human THP-1 cells assessed as reduction in intracellular lipid droplets at 2.5 to 15 uM by oil red O staining based inverted microscopic analysis; assay type: functional, cell-based; conditions: dose 2.5-15 µM
HepG2 [8] = test: Induction of reverse cholesterol transport in human HepG2 cells assessed as increase in SR-B1 mRNA expression by qRT-PCR analysis; assay type: functional, cell-based; conditions: dose 2.5-15 µM, DDE = dose-dependent effect
HepG2 [9] = test: Reduction in triglyceride level in human HepG2 cells assessed as reduction in FAS mRNA expression by qRT-PCR analysis; assay type: functional, cell-based; conditions: dose 2.5-15 µM, DDE = dose-dependent effect
THP-1 [10] = test: Inhibition of ox-LDL uptake in human THP-1 foam cells assessed as downregulation of CD36 expression by measuring reduction in total JNK protein expression at 2.5 to 15 uM by Western blot analysis; assay type: functional, cell-based; conditions: dose 2.5-15 µM
HepG2 [11] = test: Cytotoxicity against human HepG2 cells assessed as inhibition of cell growth at 0 to 15 uM incubated for 24 hrs by CCK-8 assay; assay type: toxicity, cell-based; conditions: hepg2, 24 h, dose 0-15 µM
THP-1 [12] = test: Induction of lipid efflux in human THP-1 cells assessed as upregulation of PPARgamma mRNA expression by qRT-PCR analysis; assay type: functional, cell-based; conditions: dose 2.5-15 µM, DDE = dose-dependent effect
THP-1 [13] = test: Inhibition of foam cells formation in human THP-1 cells assessed as reduction in CD36 mRNA expression at 2.5 to 15 uM by RT-PCR analysis; assay type: functional, cell-based; conditions: dose 2.5-15 µM
THP-1 [14] = test: Inhibition of ox-LDL uptake in human THP-1 foam cells assessed as downregulation of CD36 expression by measuring reduction in total p38 protein expression at 2.5 to 15 uM by Western blot analysis; assay type: functional, cell-based; conditions: dose 2.5-15 µM
THP-1 [15] = test: Inhibition of ox-LDL uptake in human THP-1 foam cells assessed as downregulation of CD36 expression by measuring reduction in MAPK mRNA expression at 2.5 to 15 uM by qRT-PCR analysis; assay type: functional, cell-based; conditions: dose 2.5-15 µM
HepG2 [16] = test: Downregulation of SREBP2 mRNA expression in human HepG2 cells at 2.5 to 15 uM by qRT-PCR analysis; assay type: functional, cell-based; conditions: dose 2.5-15 µM
HepG2 [17] = test: Downregulation of SREBP1c mRNA expression in human HepG2 cells at 2.5 to 15 uM by qRT-PCR analysis; assay type: functional, cell-based; conditions: dose 2.5-15 µM
THP-1 [18] = test: Inhibition of ox-LDL induced lipid accumulation in human THP-1 cells assessed as reduction in total cholesterol level at 2.5 to 15 uM; assay type: functional, cell-based; conditions: dose 2.5-15 µM
THP-1 [19] = test: Inhibition of foam cells formation in human THP-1 cells assessed as upregulation of ABCA1 mRNA expression at 2.5 to 15 uM by RT-PCR analysis; assay type: functional, cell-based; conditions: dose 2.5-15 µM
THP-1 [20] = test: Inhibition of ox-LDL induced lipid accumulation in human THP-1 cells assessed as reduction oxidized LDL uptake at 2.5 to 15 uM incubated for 4 hrs by Hoechst 33258 dye based confocal microscopic analysis; assay type: functional, cell-based; conditions: dose 2.5-15 µM
THP-1 [21] = test: Inhibition of ox-LDL uptake in human THP-1 foam cells assessed as downregulation of CD36 expression by measuring reduction in phosphorylated p38 protein expression at 2.5 to 15 uM by Western blot analysis; assay type: functional, cell-based; conditions: dose 2.5-15 µM
HepG2 [22] = test: Downregulation of SREBP2 protein expression in human HepG2 cells at 2.5 to 15 uM by Western blot analysis; assay type: functional, cell-based; conditions: dose 2.5-15 µM
HepG2 [23] = test: Reduction in triglyceride level in human HepG2 cells assessed as reduction in FAS protein expression by Western blot analysis; assay type: functional, cell-based; conditions: dose 2.5-15 µM, DDE = dose-dependent effect
HepG2 [24] = test: Inhibition of ox-LDL induced lipid accumulation in human HepG2 cells assessed as reduction in total cholesterol level at 2.5 to 15 uM; assay type: functional, cell-based; conditions: dose 2.5-15 µM
THP-1 [25] = test: Induction of lipid efflux in human THP-1 cells assessed as upregulation of PPARgamma protein expression at higher concentrations by Western blot analysis; assay type: functional, cell-based
THP-1 [26] = test: Cytotoxicity against human THP-1 cells assessed as inhibition of cell growth at 0 to 15 uM incubated for 24 hrs by CCK-8 assay; assay type: toxicity, cell-based; conditions: thp-1, 24 h, dose 0-15 µM
THP-1 [27] = test: Inhibition of foam cells formation in human THP-1 cells assessed as upregulation of SR-B1 protein expression at 2.5 to 15 uM by Western blot analysis; assay type: functional, cell-based; conditions: dose 2.5-15 µM
THP-1 [28] = test: Inhibition of ox-LDL uptake in human THP-1 foam cells assessed as downregulation of CD36 expression by measuring reduction in total ERK protein expression at 2.5 to 15 uM by Western blot analysis; assay type: functional, cell-based; conditions: dose 2.5-15 µM
HepG2 [29] = test: Reduction in triglyceride level in human HepG2 cells assessed as reduction in ACC mRNA expression by qRT-PCR analysis; assay type: functional, cell-based; conditions: dose 2.5-15 µM, DDE = dose-dependent effect
HepG2 [30] = test: Induction of reverse cholesterol transport in human HepG2 cells assessed as upregulation of LDLR protein expression by Western blot analysis; assay type: functional, cell-based; conditions: dose 2.5-15 µM, DDE = dose-dependent effect
THP-1 [31] = test: Induction of lipid efflux in human THP-1 cells assessed as upregulation of LXRalpha mRNA expression by qRT-PCR analysis; assay type: functional, cell-based; conditions: dose 2.5-15 µM, DDE = dose-dependent effect
HepG2 [32] = test: Reduction in triglyceride level in human HepG2 cells assessed as reduction in ACC protein expression by Western blot analysis; assay type: functional, cell-based; conditions: dose 2.5-15 µM, DDE = dose-dependent effect
THP-1 [33] = test: Inhibition of ox-LDL induced lipid accumulation in human THP-1 cells assessed as increase in cholesterol efflux rate incubated for 24 hrs by liquid scintillation counting analysis; assay type: functional, cell-based; conditions: dose 2.5-15 µM, DDE = dose-dependent effect
THP-1 [34] = test: Inhibition of foam cells formation in human THP-1 cells assessed as upregulation of ABCG1 protein expression at 2.5 to 15 uM by Western blot analysis; assay type: functional, cell-based; conditions: dose 2.5-15 µM
THP-1 [35] = test: Inhibition of foam cells formation in human THP-1 cells assessed as upregulation of SR-B1 mRNA expression at 2.5 to 15 uM by RT-PCR analysis; assay type: functional, cell-based; conditions: dose 2.5-15 µM
HepG2 [36] = test: Inhibition of ox-LDL induced lipid accumulation in human HepG2 cells assessed as reduction in total triglyceride level at 2.5 to 15 uM; assay type: functional, cell-based; conditions: dose 2.5-15 µM
HepG2 [37] = test: Induction of reverse cholesterol transport in human HepG2 cells assessed as reduction in PCSK9 protein expression at 2.5 to 15 uM by Western blot analysis; assay type: functional, cell-based; conditions: dose 2.5-15 µM
HepG2 [38] = test: Downregulation of SREBP1c protein expression in human HepG2 cells at 2.5 to 15 uM by Western blot analysis; assay type: functional, cell-based; conditions: dose 2.5-15 µM
HepG2 [39] = test: Reduction in cholesterol biosynthesis in human HepG2 cells assessed as reduction in HMGCR mRNA expression at 2.5 to 15 uM by qRT-PCR analysis; assay type: functional, cell-based; conditions: dose 2.5-15 µM
THP-1 [40] = test: Induction of lipid efflux in human THP-1 cells assessed as upregulation of LXRalpha protein expression at higher concentrations by Western blot analysis; assay type: functional, cell-based
THP-1 [41] = test: Inhibition of ox-LDL uptake in human THP-1 foam cells assessed as downregulation of CD36 expression by measuring reduction in pJNK protein expression at 2.5 to 15 uM by Western blot analysis; assay type: functional, cell-based; conditions: dose 2.5-15 µM

## CC(C)=CCc1ccc(O)c2c1[C@H](c1cc(C)cc3c1O[C@H](C(C)(C)O)CO3)NC2=O
THP-1 [1]
  inhibition: Active
THP-1 [2]
  inhibition: Active
HepG2 [3]
  Activity: Dde
THP-1 [4]
  inhibition: Active
HepG2 [5]
  Activity: Active
THP-1 [6]
  inhibition: Active
THP-1 [7]
  inhibition: Active
HepG2 [8]
  Activity: Dde
HepG2 [9]
  Activity: Dde
THP-1 [10]
  inhibition: Active
HepG2 [11]
  Activity: Non-Toxic
THP-1 [12]
  Activity: Dde
THP-1 [13]
  inhibition: Active
THP-1 [14]
  inhibition: Active
THP-1 [15]
  inhibition: Active
HepG2 [16]
  Activity: Active
HepG2 [17]
  Activity: Active
THP-1 [18]
  inhibition: Active
THP-1 [19]
  inhibition: Active
THP-1 [20]
  inhibition: Active
THP-1 [21]
  inhibition: Active
HepG2 [22]
  Activity: Active
HepG2 [23]
  Activity: Dde
HepG2 [24]
  inhibition: Active
THP-1 [25]
  Activity: Active
THP-1 [26]
  Activity: Non-Toxic
THP-1 [27]
  inhibition: Active
THP-1 [28]
  inhibition: Active
HepG2 [29]
  Activity: Dde
HepG2 [30]
  Activity: Dde
THP-1 [31]
  Activity: Dde
HepG2 [32]
  Activity: Dde
THP-1 [33]
  inhibition: Dde
THP-1 [34]
  inhibition: Active
THP-1 [35]
  inhibition: Active
HepG2 [36]
  inhibition: Active
HepG2 [37]
  Activity: Active
HepG2 [38]
  Activity: Active
HepG2 [39]
  Activity: Active
THP-1 [40]
  Activity: Active
THP-1 [41]
  inhibition: Active

From ChEMBL document CHEMBL5215001, “Diaporisoindole B Reduces Lipid Accumulation in THP-1 Macrophage Cells via MAPKs and PPARγ-LXRα Pathways and Promotes the Reverse Cholesterol Transport by Upregulating SR-B1 and LDLR in HepG2 Cells” (J Nat Prod, 2022)
